Assay results as given in patent US6525062B2, “Method of treating pain using nalbuphine and opioid antagonists” (The Regents of the University of California, priority 2000, dated 2003).
“Also recorded” adds a separate entry of the source.

Columns and labels:
[1] = test system: postoperative pain after removal of impacted third molars; settings: co-administration of 0.4 mg naloxone, human patients, cited from earlier work
[2] = test system: postoperative pain after removal of third molar teeth
Description: This is a subjective measurement of pain, in which persons participating in the study are requested to indicate a level of pain at a certain time on a 10-cm line. The patient makes an indication on the line at a value from 0 to 10 indicating the level of pain felt at that time (where 0 indicates no pain and 10 indicates the worst pain imaginable to the patient). […] Tabulations were then made indicating increase or decrease in the pain level with time, with a negative value indicating a decrease in pain experienced by the patient and a positive value, an increase in such pain.
In this clinical trial, 88 patients underwent standardized surgery by the same oral surgeon for removal of third molar (“wisdom”) teeth, including at least one bony impacted mandibular third molar. Prior to surgery, patients received intravenous diazepam, nitrous oxide, and a local anesthetic (mepivacaine without vasoconstrictor to obtain a nerve block of short duration). […]
Baseline pain intensity was defined as the last VAS pain rating before administration of the test drug or drugs. VAS pain ratings were recorded at 20-minute intervals beginning ten minutes after administration of the test drug. The duration of the experiment, measured from the time of administration of the test drug, was three hours. […]

[3] = test system: postoperative pain after removal of third molar teeth; settings: nalbuphine alone, data as reported in previous study; cited from earlier work
[4] = test system: postoperative pain after removal of impacted wisdom teeth; settings: cited from earlier work

Structure (SMILES): CN1CC[C@]23c4c5ccc(O)c4O[C@H]2[C@@H](O)C=C[C@H]3[C@H]1C5 [morphine]
- effect of co-administered naloxone on analgesia produced by morphine ([1]; 8 mg morphine): attenuated

Structure (SMILES): Oc1ccc2c3c1O[C@H]1[C@@H](O)CC[C@@]4(O)[C@@H](C2)N(CC2CCC2)CC[C@]314 [nalbuphine]
- pain relief (VAS), initial period ([2]; women, nalbuphine 2.5 mg alone vs naloxone 0.4 mg vs combination, nalbuphine-alone data from previous study): slightly better pain relief in women than either naloxone at 0.4 mg or the combination
- gender x treatment interaction (ANOVA) [3]: significant gender x treatment interaction
- effect on postoperative pain ([4]; nalbuphine 5 mg alone, men): unexpectedly increased postoperative pain; also recorded: produced a marked increase in pain in men; also recorded: pain-enhancing effect; also recorded: had produced an increase in pain
- pain modulation effect versus placebo ([4]; nalbuphine 5 mg alone, women): did not produce pain modulation effects in women that were any better than those achieved by administration of a dose of placebo
- sex difference of analgesic effects ([4]; women versus men): greater and more consistent in women than in men

Structure (SMILES): C=CCN1CC[C@]23c4c5ccc(O)c4O[C@H]2C(=O)CC[C@@]3(O)[C@H]1C5 [naloxone]
- gender differences in response (ANOVA) ([2]; Example 1, naloxone 0.4 mg alone or nalbuphine 5 mg + naloxone 0.4 mg, intravenous): lack of gender differences in response

Structure (SMILES): CC(C)=CCN1CCC2(C)c3cc(O)ccc3CC1C2C (centres unmarked) [pentazocine]
- effect of co-administered naloxone on analgesia produced by pentazocine ([1]; 60 mg pentazocine): potentiated
